Among the data in ChEMBL document CHEMBL2396627, “Novel artemisinin derivatives with potential usefulness against liver/colon cancer and viral hepatitis” (Bioorg Med Chem, 2013) are IC50 and Activity values, retold here.

Activity calls are given as the source filed them. No cut-off for these calls is given here. Where only a bound is given, the exact number is not on record here.

As usually defined, the IC50 is the concentration that inhibits the measured activity by half.

Series [1] in a line: (§1) Cytotoxicity against human LS 174T cells after 72 hrs by formazan test. Type of series: functional, cell-based. The conditions noted are these: LS174T.
In series [2] the test system is EBTr. Briefly: Antiviral activity against Bovine viral diarrhea virus Oregon C24V genotype 1 […] infected in bovine EBTr cells assessed as inhibition of virus-induced cytopathic effect at 50 uM incubated 1 hr prior to ferrosanol addition measured after 72 hrs. Type of series: functional, cell-based. Particulars: Bovine viral diarrhea virus strain Oregon C24V. On the technique in general: Cytopathic effects are the visible damage that an infection or toxin causes in cultured cells.

In series [3] the test system is EBTr. Description: Antiviral activity against Bovine viral diarrhea virus Oregon C24V genotype 1 […] infected in bovine EBTr cells assessed as inhibition of virus-induced cytopathic effect at 50 uM incubated 1 hr prior to hemin addition measured after 72 hrs. Type of series: functional, cell-based. The conditions noted are these: Bovine viral diarrhea virus strain Oregon C24V.

Another series deals with Hepatitis B virus. Briefly: Antiviral activity against Hepatitis B virus infected in human HepG2(2.2.15) cells assessed as reduction in HBV-DNA release at < 0.1 uM measured on day 21. Also on record: scale not given: the % may be the effect or the level left. It is filed as functional.
For series [4], the system named is EBTr. Briefly: Antiviral activity against Bovine viral diarrhea virus Oregon C24V genotype 1 […] infected in bovine EBTr cells assesed as inhibition of virus-induced cytopathic effect at 20 to 100 uM after 72 hrs by MTT assay. Type of series: functional, cell-based. Particulars: Bovine viral diarrhea virus strain Oregon C24V.
The test system of series [5] is HepG2. Briefly: Cytotoxicity against human HepG2 cells after 72 hrs by formazan test. It is filed as functional, cell-based. Particulars: for IC50: HepG2, 72 h.
In series [6] the test system is SK-HEP1. Description: Cytotoxicity against human SKHEP1 cells after 72 hrs by formazan test. It is filed as functional, cell-based. The conditions noted are these: for IC50: SK-HEP1, 72 h.
Series [7] relates to Bovine viral diarrhea virus strain Oregon C24V. Briefly: Antiviral activity against Bovine viral diarrhea virus Oregon C24V genotype 1 […] assessed as reduction in viral RNA release at 50 uM by RT-PCR analysis. Type of series: functional.
The nature of series [8]: Acute toxicity in bovine EBTr cells infected with BVDV assessed as reduction in cell viability at 50 uM after 72 hrs. Type of series: cell-based, Bos taurus. Particulars: cattle.
Series [9] can be described thus: Cytotoxicity against bovine EBTr cells up to 100 uM after 72 hrs by MTT assay. It is filed as cell-based, Bos taurus. Particulars: cattle. (In general: Tetrazolium dyes change colour on reduction, which living cells bring about.)
Series [10] is described as follows: Acute toxicity in bovine EBTr cells at 50 uM after 72 hrs. Type of series: cell-based, Bos taurus. Particulars: cattle.
Series [11] is described as follows: Cytotoxicity against human HepG2(2.2.15) cells assessed as reduction in cell viability at 0.1 to 1 uM measured on day 21 by natural Red test. It is filed as cell-based. Particulars: hepg2 2.2.15, 1 µM.
In series [12] the test system is EBTr. Briefly: Antiviral activity against Bovine viral diarrhea virus Oregon C24V genotype 1 […] infected in bovine EBTr cells assesed as inhibition of virus-induced cytopathic effect at 50 uM after 72 hrs by MTT assay. It is filed as functional, cell-based. The conditions noted are these: Bovine viral diarrhea virus strain Oregon C24V.
Series [13] can be described thus: Cytotoxicity against bovine EBTr cells at 20 to 100 uM after 72 hrs by MTT assay. It is filed as cell-based, Bos taurus. The conditions noted are these: cattle.
In series [14] the test system is SK-HEP1. Briefly: Acute toxicity in human SKHEP1 cells at IC50 after 6 hrs by formazan test. It is filed as cell-based. Particulars: sk-hep1, 6 h.
Series [15] can be described thus: Acute toxicity in human LS 174T cells at IC50 after 6 hrs by formazan test. It is filed as cell-based. Particulars: ls174t.
Series [16] has as its system HepG2. Briefly: Acute toxicity in human HepG2 cells at IC50 after 6 hrs by formazan test. It is filed as cell-based. Particulars: hepg2, 6 h.
Series [17] in a line: Cytotoxicity against human HepG2(2.2.15) cells assessed as reduction in cell viability at 1 uM measured on day 21 by natural Red test. Type of series: cell-based. Particulars: hepg2 2.2.15, 1 µM.
Series [18] concerns SK-HEP1. Briefly: Cytotoxicity against human SKHEP1 cells after 72 hrs in presence of ferrosanol. It is filed as functional, cell-based.
The test system of series [19] is SK-HEP1. Briefly: Cytotoxicity against human SKHEP1 cells incubated for 1 hr prior to hemin addition measured after 72 hrs. Type of series: functional, cell-based.
For series [20], the system named is SK-HEP1. Briefly: Cytotoxicity against human SKHEP1 cells incubated for 1 hr prior to ferrosanol addition measured after 72 hrs. Type of series: functional, cell-based.
The test system of series [21] is SK-HEP1. Briefly: Cytotoxicity against human SKHEP1 cells after 72 hrs in presence of hemin. It is filed as functional, cell-based.
A further series has as its system LS174T. The description is as §1. Type of series: functional, cell-based.
Series [22] can be described thus: Cytotoxicity against human HepG2(2.2.15) cells assessed as reduction in cell viability at 0.1 uM measured on day 21 by natural Red test. It is filed as cell-based. Particulars: hepg2 2.2.15, 0.1 µM.

Turning to `CC1=CO[C@@H]2O[C@]3(C)CC[C@H]4[C@H](C)CC[C@@H]1[C@@]24OO3` [ANHYDRODIHYDROARTEMISININ], the IC50 in series [1] was over 200 µM; with HepG2 [5], 200 µM; with SK-HEP1 [6], 30 µM. Besides, the outcome (in the series on EBTr [2]; in the series on EBTr [3]; in series [7]; in the series with EBTr [12]) was Active. In addition, the Activity in the series on Hepatitis B virus is 50%; in the series on EBTr [4], “Dose-dependent effect”; in [8] it was “Non-toxic”; in [9], “Non-toxic”; in series [10] it was “Non-toxic”; in [11], “Toxic”.

Turning to `C[C@@H]1CC[C@H]2[C@@H](C)C(=O)O[C@@H]3O[C@@]4(C)CC[C@@H]1[C@]32OO4` [ARTEMISININ], the IC50 (in series [1]; with HepG2 [5]; in the series on SK-HEP1 [6]) was over 200 µM each time.

For the compound `C[C@H]1[C@@H](OC(=O)C(C)(C)C)O[C@@H]2O[C@@]3(C)CC[C@H]4[C@H](C)CC[C@@H]1[C@@]24OO3`, the IC50 in series [1] stood at 70 µM; with HepG2 [5], 40 µM; in the series on SK-HEP1 [6] it was 9 µM. The Activity entry is given as “Toxic” in series [13]; “Non-toxic” in the series with SK-HEP1 [14]; “Non-toxic” in [15]; “Toxic” in [8]; “Non-toxic” in series [10]; “Non-toxic” with HepG2 [16]. For the same compound, the Activity result in [17] is “Toxic”. Besides, the result (in the series on EBTr [4]; in series [7]) was Active. In the series on EBTr [12], the result was inactive.

Turning to `CCCC(CCC)C(=O)O[C@H]1O[C@@H]2O[C@@]3(C)CC[C@H]4[C@H](C)CC[C@@H]([C@H]1C)[C@@]24OO3`, the half-maximal inhibitory concentration (IC50) in [1] turned out to be 5 µM; in the series with HepG2 [5] it was 3 µM; with SK-HEP1 [6] it was 1 µM. In addition, the Activity entry in series [13] is listed as “Toxic”; in the series with SK-HEP1 [14], “Non-toxic”; in series [15], “Non-toxic”; in series [8], “Toxic”; in series [10] it was “Non-toxic”; with HepG2 [16], “Non-toxic”. The Activity result in series [17] was “Toxic”. In addition, the result (in the series with SK-HEP1 [18]; in the series on SK-HEP1 [19]; in series [7]; with SK-HEP1 [20]; with SK-HEP1 [21]) was Active. In addition, the result in the series on EBTr [4] and in the series with EBTr [12] was inactive.

Take `C[C@H]1[C@H](OC(=O)CCC(=O)O)O[C@@H]2O[C@@]3(C)CC[C@H]4[C@H](C)CC[C@@H]1[C@@]24OO3` [ARTESUNATE]: the Activity result in the series on LS174T is “Dose-dependent effect”; with SK-HEP1 [14], “Toxic”; in series [15], “Toxic”; in the series on HepG2 [5], “Dose-dependent effect”; in the series on SK-HEP1 [6], “Dose-dependent effect”; with HepG2 [16], “Toxic”. Moreover, the IC50 was 10 µM in series [1], 20 µM with HepG2 [5] and 10 µM in the series on SK-HEP1 [6]. Moreover, the result with SK-HEP1 [18], with SK-HEP1 [19], with SK-HEP1 [20] and in the series on SK-HEP1 [21] was Active.

For the compound `C[C@H]1[C@@H](OC(=O)C(F)(F)C(F)(F)F)O[C@@H]2O[C@@]3(C)CC[C@H]4[C@H](C)CC[C@@H]1[C@@]24OO3`, the half-inhibitory concentration (IC50) in series [1] was over 200 µM; in the series on HepG2 [5], 200 µM; in the series on SK-HEP1 [6], 150 µM. For the same compound, the Activity result in the series with EBTr [4] was “Dose-dependent effect”; in series [8], “Non-toxic”; in series [9], “Non-toxic”; in [10], “Non-toxic”; in [22] it was “Toxic”. For the same compound, in series [7], the result was inactive. For the same compound, the result in the series on EBTr [12] was Active.

On to `C[C@H]1[C@@H](O)O[C@@H]2O[C@@]3(C)CC[C@H]4[C@H](C)CC[C@@H]1[C@@]24OO3` [ARTENIMOL], for which the Activity result with LS174T is “Dose-dependent effect”; in series [13] it was “Toxic”; in the series on HepG2 [5] it was “Dose-dependent effect”; in the series with SK-HEP1 [6] it was “Dose-dependent effect”; in series [8], “Toxic”; in [10] it was “Non-toxic”. Also, in series [17], the Activity result is “Toxic”. Besides, the half-maximal inhibitory concentration (IC50) was 120 µM in series [1], 70 µM in the series with HepG2 [5] and 30 µM in the series with SK-HEP1 [6]. Further, the outcome (with EBTr [4]; in series [7]; with EBTr [12]) was Active.

In the case of `C[C@H]1[C@@H](OC(=O)N(C)C)O[C@@H]2O[C@@]3(C)CC[C@H]4[C@H](C)CC[C@@H]1[C@@]24OO3`, the results for the IC50 (in [1]; in the series with HepG2 [5]; with SK-HEP1 [6]) were 100 µM, 70 µM and 25 µM, respectively. In addition, the Activity result is “Dose-dependent effect” with EBTr [4]; “Non-toxic” in [8]; “Non-toxic” in [9]; “Non-toxic” in series [10]; “Toxic” in [22]. Also, in series [7], the result was inactive. In addition, in the series on EBTr [12], the outcome was Active.

`CCCC(=O)O[C@H]1O[C@@H]2O[C@@]3(C)CC[C@H]4[C@H](C)CC[C@@H]([C@H]1C)[C@@]24OO3`: the values for the IC50 (in series [1]; with HepG2 [5]; in the series on SK-HEP1 [6]) were 130 µM, 100 µM and 2 µM, respectively. Also, the Activity entry (in the series on SK-HEP1 [14]; in series [15]; in [8]; in series [9]; in [10]; with HepG2 [16]) was “Non-toxic” in each case. Further, in [17], the Activity entry is “Toxic”. The outcome in the series on EBTr [4] and with EBTr [12] was Active. In addition, the result in series [7] was inactive.

As for `CCC(C)O[C@H]1O[C@@H]2O[C@@]3(C)CC[C@H]4[C@H](C)CC[C@@H]([C@H]1C)[C@@]24OO3` (some centres not stated), the 50% inhibitory concentration (IC50) turned out to be 70 µM in series [1], 50 µM with HepG2 [5] and 10 µM in the series with SK-HEP1 [6]. Also, the Activity result in series [13] is listed as “Toxic”; in the series with SK-HEP1 [14], “Non-toxic”; with Hepatitis B virus it was 50%; in series [15], “Non-toxic”; in series [8], “Toxic”; in series [10] it was “Non-toxic”. For the same compound, the results for the Activity entry (with HepG2 [16]; in [11]) were “Non-toxic” and “Toxic”, respectively. Besides, the result (in the series on EBTr [4]; in series [7]) was Active. The result in the series on EBTr [12] was inactive.

As for `CC(=O)O[C@H]1O[C@@H]2O[C@@]3(C)CC[C@H]4[C@H](C)CC[C@@H]([C@H]1C)[C@@]24OO3`, the IC50 in series [1] came out at 70 µM; with HepG2 [5], 60 µM; in the series with SK-HEP1 [6], 4 µM. For the same compound, the Activity entry in the series with SK-HEP1 [14] is “Non-toxic”; in series [15], “Non-toxic”; with EBTr [4], “Dose-dependent effect”; in series [8] it was “Non-toxic”; in series [9], “Non-toxic”; in series [10] it was “Non-toxic”. Besides, the results for the Activity entry (with HepG2 [16]; in series [22]) were “Non-toxic” and “Toxic”, respectively. The result (in [7]; with EBTr [12]) was Active.
